The results in this text go back to US10570168B2, “2′ and/or 5′ amino-acid ester phosphoramidate 3′-deoxy adenosine derivatives as anti- cancer compounds” (NuCana plc, priority 2014, dated 2020).

The subject of one test is CCRF-CEM. Nature of the test: CellTiterGlo viability assay, initial screening. The settings on record: Homo sapiens, 72 h, read-out: IC50 (relative IC50). The test is classed as cell-based. The procedure, abridged: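 Under standard growth conditions with 0.5% final DMSO, cells received pre-warmed compound-containing media over nine 3.16-fold dilutions reaching 19.9 nM. After roughly 72 hr, CellTiter-Glo was used to quantify viability; all treatments were done in duplicate.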
Background: ATP-based viability assays read luminescence as a measure of living cells.

Another test relates to RL (CRL-2261). The test can be described thus: ATP (ViaLight plus) cytotoxicity assay. The class given is cell-based. As for the experimental part: (§1) Certain compounds of the invention were subjected to further studies to test the cytotoxic activity of certain compounds of the invention and also to measure their activity against 4 haematological cancer cell lines • TdT positive CEM (Human ALL) • TdT negative K562 (Human CML) • TdT negative H1-60 (Human ANLL) • RL (CRL-2261) non-HD lymphoma • The concentrations of the active metabolite dATP (Cordycepin triphosphate) in these cell lines was also measured. • The cytotoxic activity and the intracellular 3′-dATP concentrations were also studied in the presence of hENT1, Adenosine Kinase (AK) and Adenosine Deaminase pharmacological inhibitors in CEM and RL cancer cell lines. Said inhibitors that mimic known cancer resistance mechanisms. Methods Cell Culture
(§2) HL-60 (ATCC® CCL-240™), K562 (ATCC® CCL-243™), CCRF-CEM (ATCC® CRM-CCL-119™) and RL (ATCC® CRL-2261™) leukaemia cell lines, obtained from the American Type Culture Collection (ATCC), Middlesex. HL-60 and K562 cell lines are deoxynucleotidyl transferase-negative (TdT-ve), whereas CCRF-CEM cell line is TdT+ve.
(§3) HL-60, K562, CCRF-CEM and RL cell lines were cultured in RPMI-1640 medium (Sigma Aldrich, UK), which were supplemented with 10% Fetal Bovine Serum (FBS) (PAA Laboratories), 1% amphotericin B (5.5 ml) and 1% penicillin/streptomycin (5.5 ml) (PAA Laboratories) and grown in flasks at 37° C. incubator with 5% CO2.
(§4) The amount of ATP was used as a measurement of cell number and cell viability. ATP ViaLight™ plus assay kit (Lonza, USA: Product No. LT07-121) to detect ATP in cells treated in luminescence compatible 96 well plates (initial concentration of cells was 1×10^4 cells/well) with cordycepin and ProTides at concentrations of: 0, 0.1, 0.5, 1, 5 and 10 μM, followed by incubation for 72 hours at 37° C. incubator with 5% CO2. For inhibitor studies, 10 μM of NBTI or 1 μM EHNA or A-134974 was added and left for 5 minutes before adding the drugs (see section 5 for inhibitor details).
(§5) After incubation, 50 μl of cell lysis reagent was added to the 96 well plates to release the intracellular ATP, followed by 100 μl of ATP monitoring reagent (AMR). The luminescent values of each well were determined using FLUOstar OPTIMA microplate reader (BMG Labtech) which convert ATP into light by using luciferase enzyme. Therefore, the amount of luminescence produced was directly proportional to the amount of ATP.
Cell lines were treated in the same way as described above but before treatment with drugs, a number of inhibitors were added: • 1) Nitrobenzylthioinosine (NBTI) (Sigma-Aldrich, St. Louis, Mo., product # N2255) blocks nucleoside transporters • 2) EHNA hydrochloride (Sigma-Aldrich, St. Louis, Mo., product # E114) blocks adenosine deaminase • 3) Adenosine kinase inhibitor A-134974 dihydrochloride hydrate (Sigma-Aldrich, St. Louis, Mo., product # A2846): blocks adenosine kinase
(§6) The dose-response curves of cytotoxicity of the drugs was determined using non-linear regression analysis of percentage cell viability versus concentration and EC50 values were obtained. The intracellular assay was conducted in five replicates for each condition. Intracellular assay was determined using paired t test (two-tailed) analysis of 3′ATP/ATP concentration and p-values were obtained. For all the analysis, Prism Software program (GraphPad Software) was used and Microsoft Powerpoint® 2013 was used to plot the results.

Another test concerns K562 (TdT negative). The test can be described thus: ATP (ViaLight plus) cytotoxicity assay. The test is classed as cell-based, Human. Here is the method:
as §1, §2, §3, §4, §5, §6

In another test the test system is HL-60 (TdT negative). Nature of the test: ATP (ViaLight plus) cytotoxicity assay. The test is classed as cell-based, Human. Here is the method:
as §1, §2, §3, §4, §5, §6

The next test relates to MiaPaCa-2. Nature of the test: Solid tumour and haematological malignancy assay (CellTiterGlo). The test is classed as cell-based. To be noted: Homo sapiens, MIA PaCa-2, 72 h, read-out: IC50 (absolute IC50). The procedure, abridged:
(§7)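 CTG luminescence read-out of viability after 3 days of compound exposure; duplicates, standard growth conditions, 0.5% DMSO final.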

Another test deals with HepG2. Described as above. To be noted: Homo sapiens, HepG2, 72 h, read-out: IC50 (absolute IC50). The class given is cell-based. The gist of the method:
as §7

For the next test, the system named is HL-60. Described as above. The class given is cell-based. To be noted: Homo sapiens, HL-60, 72 h, read-out: IC50 (absolute IC50). The gist of the method:
as §7

The subject of the next test is HT29. The test is described as above. The class given is cell-based. The settings on record: Homo sapiens, HT-29, 72 h, read-out: IC50 (absolute IC50). The gist of the method:
as §7

A further test has as its system CCRFCEM. The test is described as above. The test is classed as cell-based. The settings on record: Homo sapiens, CCRF-CEM, 72 h. The procedure, abridged:
as §7

As for `COC(=O)C(C)(C)NP(=O)(OC[C@@H]1C[C@@H](O)[C@H](n2cnc3c(N)ncnc32)O1)Oc1cccc2ccccc12` (stereo partly drawn) [E, Methyl 2-(((((2S,4R,5R)-5-(6-amino-9H-purin-9-yl)-4-hydroxytetrahydrofuran-2-yl)-methoxy)(naphthalen-1-yloxy)phosphoryl)amino)-2-methylpropanoate], the IC50 in the test with CCRF-CEM was 15 to 100 µM; with RL (CRL-2261) (72 h, CRL (RL, CRL-2261)), 11 µM; in the test on RL (CRL-2261) (CRL, Control (no inhibitor)) it was 8.2 µM; with RL (CRL-2261) (CRL, with AK (adenosine kinase inhibitor A-134974, 1 μM)) it was 7.1 µM; in the test on RL (CRL-2261) (CRL, with EHNA 1 μM (adenosine deaminase blocker)), 5.9 µM; in the test on RL (CRL-2261) (CRL, with NBTI 10 μM (nucleoside transporter blocker)) it was 8.2 µM. Also, the IC50 is 13.9 µM in the test with K562 (TdT negative) (Homo sapiens, K562, 72 h); 10.2 µM in the test on HL-60 (TdT negative) (Homo sapiens, HL-60, 72 h); 15 to 100 µM in the test with MiaPaCa-2; 15 to 100 µM with HepG2; 5 to 15 µM with HL-60; 15 to 100 µM in the test on HT29. Also, the IC50 with CCRFCEM (read-out: IC50 (absolute IC50)) was 0.1 to 5 µM. The “(FD) fold difference compared to Cordycepin = Cordycepin IC50/ProTide IC50” value was “(2)” with RL (CRL-2261) (CRL (RL, CRL-2261)); “(1)” in the test with K562 (TdT negative) (K562); “(1)” in the test with HL-60 (TdT negative) (HL-60). The “(FD) fold difference compared to control” value is listed as “(1)” with RL (CRL-2261) (CRL, IC50 with AK inhibitor); “(1)” in the test on RL (CRL-2261) (CRL, IC50 with EHNA); “(1)” with RL (CRL-2261) (CRL, IC50 with NBTI). Also, the Emax in the test on CCRFCEM (read-out: MI %) came out at 100%.

What is called IC50 is the point on the concentration scale where inhibition reaches its midpoint.
